“Also recorded” adds a separate entry of the source.
Experiments:
Nox2 = test: IL-6 i.p. on two consecutive days in mice: brain and synaptosomal Nox; conditions: IL-6 5 μg/kg i.p. on two consecutive days
Jak2 = Jak2 phosphorylation in cortical neurons exposed to IL-6; format: cell-based, mouse; conditions: IL-6 20 ng/ml, 1 h, absence of astrocytes
Protocol: Exposure of cortical neurons to IL-6 (20 ng/ml, 1 h in the absence of astrocytes) increased the phosphorylation of the protein kinase Jak2, which transduces the signal from the activated IL-6 receptor, as illustrated by the data shown in FIG. 34A. […] Prolonged exposure (24 h) to the interleukin increased production of superoxide (as determined by DHE oxidation) and increased the expression of Nox2 in neurons, as illustrated by the data shown in FIG. 34B. The role of Nox2 activation in the increase in DHE oxidation was confirmed by co-exposure to the Nox inhibitor apocynin (0.5 mM) (FIG. 34B bottom panels).
For FIGS. 34A-34B: primary neuronal cultures were developed on coverslips as described Kinney et al., 2006, supra. After 21 days in culture, coverslips containing neurons were separated from the astrocytic monolayers, washed in HCSS and subjected to IL-6 treatment for 1 hour (FIG. 34A) or treated with IL-6 for 24 h on top of the astrocyte monolayer (FIG. 34B). After treatment, the coverslips were fixed in paraformaldehyde and processed for double fluorescence immuno-cytochemistry using the following antibodies: anti-GAD67 (1:2000, Chemicon. Red) anti-phospho-Jak2 (1:100, Cell Signaling. Green), and anti-Nox2 (1:300, monoclonal 54.1 Green). […] Secondary antibodies were conjugated to ALEXAFLUOR 488™ (green fluorescence) and ALEXAFLUOR 568™ (red fluorescence).

[1] = in vivo; cited from earlier work
[2] = IL-6 i.p. in young and old mice: plasma IL-6 (ELISA) and tolerability; format: in vivo
Protocol: Plasma IL-6 is increased with aging or after intraperitoneal (i.p.) administration of IL-6, as illustrated by data shown in FIG. 44. […] IL-6 was assayed by ELISA (R&D Systems, Minneapolis, Minn.). Mice were then given a direct intraperitoneal (IP) injection of 3 μg/kg IL-6 on two consecutive days, and plasma IL-6 was assayed 16 hours (hr) after the last injection. […] Since the half-life of IL-6 in plasma is 4 hr, the sustained increase in IL-6 after injection may indicate induction of new IL-6 synthesis in young mice, which may be suppressed by the high endogenous IL-6 levels in old mice.

[3] = tested on: primary neuronal cultures; test: IL-6 exposure of primary neuronal cultures: oxidized DHE, Nox2, parvalbumin and GAD67; format: cell-based, mouse
Protocol: IL-6 increases superoxide in a Nox dependent manner, and reduces GAD67 and parvalbumin in primary cultures, as summarized by the data graphically presented in FIG. 18. […] As before, dihydroethidium (DHE) was applied for the last hour (DHE detects superoxide and hydrogen peroxide). After fixation, ICC for PV and GAD67 was carried out as described in methods and quantitative confocal microscopy was utilized for fluorescence analysis.
DHE (1 μg/ml) was added during the last hour of treatment. Images show the increase in Nox2 immunoreactivity and oxidized DHE upon treatment with IL-6. Bar-graphs show the results of quantification of oxidized DHE and Nox2 fluorescence expressed as % of control. […] Data are means±SEM. Baseline intensities: DHE=21±4.7; Nox2=18.7±2.6.
Fluorescence confocal images of representative fields depicting the expression of parvalbumin (PV) and GAD67 in PV-interneurons. Bar-graph represents the quantification of fluorescence expressed as % of control. […] Data are means±SEM. Baseline intensities: PV=135±32; GAD67=114±26.
IL-6 potentiates ketamine effects on PV-interneurons. […] After fixation, ICC for GAD67 and parvalbumin was carried out as described by Kinney (2006) J. Neurosci. […] N=3 cultures per condition.

NADPH oxidase = target: T1, NADPH oxidase (Mus musculus, UniProt Q61093); test: EPR superoxide production by forebrain synaptosomes exposed to IL-6; format: biochemical; conditions: IL-6 100 ng/ml, synaptosomes
T1 sequence (Q61093 1-570): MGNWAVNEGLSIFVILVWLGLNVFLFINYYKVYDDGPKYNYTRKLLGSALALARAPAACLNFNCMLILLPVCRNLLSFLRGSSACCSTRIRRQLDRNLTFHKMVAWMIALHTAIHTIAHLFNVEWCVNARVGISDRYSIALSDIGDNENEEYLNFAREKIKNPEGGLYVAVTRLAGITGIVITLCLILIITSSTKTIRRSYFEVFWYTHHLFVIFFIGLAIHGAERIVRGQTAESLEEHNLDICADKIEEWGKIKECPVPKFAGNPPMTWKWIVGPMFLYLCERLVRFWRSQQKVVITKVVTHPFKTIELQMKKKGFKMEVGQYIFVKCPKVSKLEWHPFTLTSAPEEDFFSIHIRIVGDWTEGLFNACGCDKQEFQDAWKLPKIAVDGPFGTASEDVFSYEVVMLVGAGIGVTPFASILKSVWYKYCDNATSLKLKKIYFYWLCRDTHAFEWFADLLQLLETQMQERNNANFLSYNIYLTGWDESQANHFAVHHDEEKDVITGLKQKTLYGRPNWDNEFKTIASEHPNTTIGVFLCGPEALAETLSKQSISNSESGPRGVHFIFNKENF
T1 sequence (Q61462 1-192 partner): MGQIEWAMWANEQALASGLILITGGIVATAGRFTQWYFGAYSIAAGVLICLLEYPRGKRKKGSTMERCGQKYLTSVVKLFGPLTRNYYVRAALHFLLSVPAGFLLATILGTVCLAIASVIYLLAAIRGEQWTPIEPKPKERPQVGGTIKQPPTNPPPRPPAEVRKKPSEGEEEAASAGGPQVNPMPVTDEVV

[4] = tested on: PV-interneurons in mouse prefrontal cortex; test: two-day ketamine treatment of mice: oxidized DHE, parvalbumin and GAD67 in prefrontal cortex; format: in vivo; conditions: apocynin 5 mg/kg/day 1 week in drinking water; C3 1.0 mg/kg/day one month by mini-pumps
Protocol: Animals and treatments. […] Male C57BL6 mice were obtained from Jackson Labs, Bar Harbor, Me., at 8-12 weeks and housed in our facility until 15 weeks when they were used for experiments. Ketamine (30 mg/kg) was applied intraperitoneally (IP) on two consecutive days at around 4 pm. DHE was applied 30 min after the last ketamine injection as described (19, 20). Briefly, two serial i.p. injections of freshly prepared dihydroethidium (27 mg/kg) are given at 30 minute intervals. Eighteen hours later, mice are anesthetized with inhaled halothane, and perfused intracardially with cold saline followed by 4% paraformaldehyde in PBS. The Nox inhibitor, apocynin (5 mg/kg/day) was given in the drinking water for a total of seven days, with an assumed intake of […] H2O/mouse/day, and ketamine was applied on the last two days. […] All animal studies were approved by the Animal Care Program at the University of California, San Diego, and are in accordance the PHS Guide for the Care and Use of Laboratory Animals, USDA Regulations, and the AVMA Panel on Euthanasia.
Immunohistochemistry: Brains were frontally sliced in a vibratome into 50 μm coronal sections encompassing the prefrontal cortex region (from Bregma 2.0 to 1.3). Sequential slices were processed for floating-section double immunohistochemistry for the detection of parvalbumin and GAD67. Antigen retrieval was performed by incubation of the slices in 1% sodium borohydride for 15 min as described (see reference 34, below), followed by washing in PBS and incubation in 10% normal goat serum in PBS for 16 h at 4° C. Primary antibodies (Calbindin: 1:5000: Calretinin: 1:2000; Parvalbumin: 1:3000, all rabbit polyclonals from Swant, Bellinzona, Switzerland. GAD67: 1:1000, from Chemicon-Millipore, Temecula, Calif.) were diluted in 2% normal goat serum in PBS and applied to the slices for 18 h at 4° C., after which slices were washed in PBS and incubated in a 1:1000 dilution of ALEXAFLUOR™ (Molecular Probes, Invitrogen, Carlsbad, Calif.) conjugated goat anti-rabbit (568) or goat anti-mouse (488) antibodies for 1 hr at room temperature (rt). Slices were washed in PBS and mounted sequentially in glass slides using […]™ (Vector Laboratories, Burlingame, Calif.), covered with a coverslip and allowed to dry for at least 24 h before confocal imaging.
Six slices were analyzed per animal.
Analysis of superoxide and/or hydrogen peroxide production by confocal imaging of in vivo dihydroethidium (DHE) oxidation. Mice will be injected intraperitoneally (i.p.) with dihydroethidium.

PV-interneurons [5] = test: parvalbumin and GAD67 immunoreactivity in PV-interneurons in primary neuronal cultures; conditions: co-exposure with ketamine 24 h; muscimol 10 μM, C3, apocynin 0.5 mM
[6] = tested on: primary neuronal cultures; test: DHE oxidation (superoxide and/or hydrogen peroxide production) in primary neuronal cultures exposed to ketamine; format: cell-based, mouse
PV-interneurons [7] = test: PV-interneuron counts in old mice after long-term SOD-mimetic treatment; format: in vivo, mouse; conditions: treatment of animals from middle age (OM+C3)
Protocol: Aging was accompanied by a statistically significant decrease in PV-interneuron number in all regions analyzed, as shown in FIG. 41B. […] Statistical significance was determined by ANOVA followed by Tukey's test.

[8] = tested on: pyramidal layer of CA1 in the aged hippocampus; test: in vivo superoxide production in CA1 of the aged hippocampus (DHE confocal imaging); set-up: species or system mouse; conditions: old mice; C3 by oral administration; apocynin
Protocol: Analysis of superoxide and/or hydrogen peroxide production by confocal imaging of in vivo dihydroethidium (DHE) oxidation. Mice will be injected intraperitoneally (i.p.) with dihydroethidium. Briefly, two serial i.p. injections of freshly prepared dihydroethidium (27 mg/kg) are given at 30 minute intervals. Eighteen hours later, mice are anesthetized with inhaled halothane, and are perfused intracardially with cold saline followed by 4% paraformaldehyde in PBS. Brains are removed and post-fixed in 2% paraformaldehyde for >24 h. Following fixation, brains are cut into 50 μm coronal sections and co-labeled with the appropriate primary and secondary antibodies for fluorescence visualization. […] First, an image is taken in the fluorescence channel of the ICC-fluorophor and then the channel is switched to image fluorescence from DHE oxidation. […] Using the image pairs for each field and MetaMorph software, an analyst blind to the group circles the outline of each ICC-labeled cell and then switches to the DHE oxidation image. The average fluorescence intensity for each cell of interest is logged, and values averaged to determine the mean fluorescence/cell.

Substance	Nox activity in synaptosomal preparations (Nox2)	phosphorylation of Jak2 (Jak2)	half-life in plasma [1]	plasma IL-6 16 hr after the last injection ([2]; 3 μg/kg IL-6 i.p. on two consecutive days)	tolerability of higher doses ([2]; IL-6 12 μg/kg)	immunoreactivity of GAD67 and parvalbumin in PV-interneurons ([3]; IL-6 10 ng/ml, 24 h)	levels of DHE oxidation ([3]; IL-6 10 ng/ml, 24 h)	effect on parvalbumin and GAD67 immunoreactivity with sub-threshold ketamine ([3]; IL-6 10 ng/ml, ketamine, 24 h)	expression of Nox2 ([3]; IL-6, 24 hours)	superoxide production (EPR, DEPMPO) (NADPH oxidase)	effect on ketamine-induced increase in oxidized DHE in vivo [4]	effect on ketamine-mediated loss of parvalbumin immunoreactivity in PV-interneurons in vivo [4]	effect on ketamine-mediated loss of parvalbumin and GAD67 immunoreactivity in PV-interneurons (PV-interneurons [5])	effect on ketamine-mediated increase in ROS / free radical production (DHE fluorescence) [6]	effect on ketamine-mediated increase in oxidized DHE [6]	effect on age-related reduction of PV-interneuron numbers (PV-interneurons [7])	effect on elevated levels of superoxide in the pyramidal layer of CA1 in the aged hippocampus [8]
IL-6: pro-inflammatory cytokine interleukin-6	significant induction	increased	4 h	increased plasma IL-6 in young, but not old, mice	induced the sickness response and generalized inflammatory reaction	decreased	increased	increased the effects of ketamine	pronounced increase	small but significant increase	–	–	–	–	–	–	–
tris malonic acid C60 [C3]	–	–	–	–	–	–	–	–	–	–	prevented	completely prevented	prevented; also recorded: attenuated	prevented	prevented	prevented the reduction of PV-interneuron numbers in CA1 and CA3, but not in DG	prevented
